# From article PMC7614749 (Chemistry (Weinheim an der Bergstrasse, Germany), 2023)
# Target: T1, transketolase (TK) (Zea mays, UniProt Q7SIC9)
# T1 sequence (Q7SIC9 1-675): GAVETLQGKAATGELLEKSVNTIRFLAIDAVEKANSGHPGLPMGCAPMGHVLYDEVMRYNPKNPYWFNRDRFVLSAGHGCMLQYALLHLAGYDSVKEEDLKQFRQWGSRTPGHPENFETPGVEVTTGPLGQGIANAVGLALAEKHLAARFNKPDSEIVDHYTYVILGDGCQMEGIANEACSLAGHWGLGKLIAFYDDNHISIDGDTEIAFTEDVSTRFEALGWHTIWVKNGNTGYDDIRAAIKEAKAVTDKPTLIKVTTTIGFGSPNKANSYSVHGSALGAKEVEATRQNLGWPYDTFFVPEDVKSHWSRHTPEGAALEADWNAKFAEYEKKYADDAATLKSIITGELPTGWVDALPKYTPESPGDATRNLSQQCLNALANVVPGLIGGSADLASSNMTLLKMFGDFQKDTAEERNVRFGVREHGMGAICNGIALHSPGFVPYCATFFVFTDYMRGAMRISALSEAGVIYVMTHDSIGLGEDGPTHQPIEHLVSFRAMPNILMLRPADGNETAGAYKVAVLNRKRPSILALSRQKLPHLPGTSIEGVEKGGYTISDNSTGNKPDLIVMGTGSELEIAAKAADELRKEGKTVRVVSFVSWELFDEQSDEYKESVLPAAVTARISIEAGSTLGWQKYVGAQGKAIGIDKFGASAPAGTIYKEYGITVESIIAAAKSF
# Assay: in vitro dose-response enzymatic activity assay
# Format: biochemical
# Conditions: read-out: enzymatic assay / IC50
smiles,measurement,value
"C/C=C1/CC2=C(C(=O)OC2=O)[C@H](CCC)[C@H](O)C(=O)C[C@@H]1O [compound 6, cornexistin]",IC50,50 ± 5 µM
